ChEMBL document CHEMBL1133043, “Potent inhibition of retinoic acid metabolism enzyme(s) by novel azolyl retinoids” (Bioorg Med Chem Lett, 2000)

tested on: Cricetinae gen. sp.; test: The compound was tested for the inhibition of all-trans retinoic acid (ATRA) catabolism using 7.27 pmol [11,12-3H]-ATRA as substrate in microsomal preparations of male hamster liver fortified with NADPH; format: functional

| SMILES | IC50 [nM] |
| --- | --- |
| CC1=C(/C=C/C(C)=C/C=C/C(C)=C/C(=O)O)C(C)(C)CCC1n1cncn1 (stereo not given) | 880 |
| COC(=O)/C=C(C)/C=C/C=C(C)/C=C/C1=C(C)C(n2cncn2)CCC1(C)C (stereo not given) | 680 |
| CC1=C(/C=C/C(C)=C/C=C/C(C)=C/C(=O)O)C(C)(C)CCC1n1cnnc1 (stereo not given) | 1620 |
| CC1=C(/C=C/C(C)=C/C=C/C(C)=C/C(=O)O)C(C)(C)CCC1n1ccnc1 (stereo not given) | 100 |
| CC(=O)N1CCN(c2ccc(OC[C@H]3CO[C@](Cn4ccnc4)(c4ccc(Cl)cc4Cl)O3)cc2)CC1 [KETOCONAZOLE] | 34000 |
